Source: US7795220B2, “Conformationally constrained parathyroid hormones with alpha-helix stabilizers” (The General Hospital Corporation, priority 2003, dated 2010)
Non-standard residues stand in square brackets, D forms with d. Residues, ends and D or L forms follow the SMILES beside them. hArg = N=C(N)NCCCC[C@H](N)C(=O)O; Ac5c = NC1(C(=O)O)CCCC1; Deg = CCC(N)(CC)C(=O)O; Aib = CC(C)(N)C(=O)O

What was measured:
[1] = target: T1, hP1R-delNt (Homo sapiens, UniProt Q03431); assay: cAMP stimulation in LdelNt-2 cells; type: cell-based
T1 construct: expressed in transfected cells
T1 sequence (Q03431 with tags, fused parts or gaps limits assumed): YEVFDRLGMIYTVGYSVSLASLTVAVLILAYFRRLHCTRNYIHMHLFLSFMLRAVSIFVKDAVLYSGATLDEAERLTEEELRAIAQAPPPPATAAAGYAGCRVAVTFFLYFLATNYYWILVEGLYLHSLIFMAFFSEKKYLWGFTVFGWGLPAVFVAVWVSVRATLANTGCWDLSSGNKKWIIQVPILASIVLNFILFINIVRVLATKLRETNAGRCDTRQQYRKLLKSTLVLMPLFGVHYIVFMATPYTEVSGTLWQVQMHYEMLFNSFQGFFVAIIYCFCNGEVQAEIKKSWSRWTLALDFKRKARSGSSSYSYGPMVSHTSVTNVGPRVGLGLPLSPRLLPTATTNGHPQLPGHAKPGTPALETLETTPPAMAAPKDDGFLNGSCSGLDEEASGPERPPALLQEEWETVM
Excerpt: (§1) Cell Culture. The cell line HKRK-B28 (Takasu, H., et al., J. Bone Miner. Res. 14:11-20 (1999)) was derived from the porcine kidney cell line, LLC-PK1 by stable transfection with plasmid DNA encoding a recombinant P1R chimera comprised of the opposum P1R from the N-terminus to the mid region of TM3 and the rat P1R from the mid region of TM3 to the C-terminus. The surface density of the P1R in these cells is ˜280,000 receptors per cell. The clonal cell line LdelNt-2 was derived from LLC-PK, cells via stable transfection with a plasmid encoding P1R-delNt, a recombinant human PTH-1 receptor construct in which most of the amino-terminal extracellular domain is deleted. These cells, as well as COS-7 cells and SaOS-2-B10 cells, were cultured at […] in T-75 flasks ([…]) in Dulbecco's modified Eagle's medium (DMEM) supplemented with fetal bovine serum (10%), penicillin G (20 units/ml), streptomycin sulfate (20 μg/ml) and amphotericin B (0.05 μg/ml) in a humidified atmosphere containing 5% CO2. Stock solutions of EGTA/trypsin and antibiotics were from GLBCO; fetal bovine serum was from Hyclone Laboratories (Logan, Utah). COS-7 cells sub-cultured in 24-well plates were transfected with plasmid DNA (200 ng per well) encoding the wild-type human P1R or truncated human P1R deleted for residues (24-181) (Shimizu, M., et al., J. Biol. Chem. 275:21836-21843 (2000)) that was purified by cesium chloride/ethidium bromide density gradient centrifugation, and FuGENE 6 transfection reagent (Roche Indianapolis Ind.) according to the manufacturer's recommended procedure. All cells, in 24-well plates, were treated with fresh media and shifted to 33° C. for 12 to 24 h prior to assay.
(§2) cAMP Stimulation. Stimulation of cells with peptide analogs was performed in 24-well plates. Cells were rinsed with 0.5 mL of binding buffer (50 mM Tris-HCl, 100 mM NaCl, 5 mM KCl, 2 mM CaCl2, 5% heat-inactivated horse serum, 0.5% fetal bovine serum, adjusted to pH 7.5 with HCl) and treated with 200 μL of cAMP assay buffer (Delbecco's modified Eagle's medium containing 2 mM 3-isobutyl-1-methylxanthine, 1 mg/mL bovine serum albumin, 35 mM Hepes-NaOH, pH 7.4) and 100 μL of binding buffer containing varying amounts of peptide analog (final volume=300 μL). The medium was removed after incubation for 30 to 60 minutes at room temperature, and the cells were frozen on dry ice, lysed with 0.5 mL 50 mM HCl, and refrozen ([…]). The cAMP content of the diluted lysate was determined by radioimmunoassay. The EC50 response values were calculated using nonlinear regression (see below).
(§3) Data Calculation. Calculations were performed using Microsoft® Excel. Nonlinear regression analyses of binding and cAMP dose-response data were performed using the four-parameter equation: yp=Min+[(Max−Min)/(1+(IC50/x)^slope)]. The Excel Solver function was utilized for parameter optimization, as described previously (Carter, P. H., et al., Endocrinology 140: 4972-4981 (1999); Bowen, W. P., and Jerman, J. C., Trends in Pharmacol. Sci. 16: 413-417 (1995)). Differences between paired data sets were statistically evaluated using a one-tailed Student's t-test, assuming unequal variances for the two sets.
Agonist activities of selected analogs in cells expressing P1R-delNt were examined. This PTH-1 receptor construct lacks most of the N domain, but nevertheless mediates full agonist responses to N-terminally modified PTH analogs, and thus enables the relative roles of the receptor's N and J domains to the ligand interaction process to be evaluated. The clonal cell line LdelNT-2 was used, which was derived from LLC-PK, cells by stable transfection with a plasmid encoding the human P1R-delNt construct.

[2] = system: P1R; assay: Antagonism of agonist-induced cAMP activity; type: cell-based; conditions: analog at 10^−5 M, agonist at 10^−9 M
Procedure: Polypeptides described herein can be screened for their agonistic or antagonistic properties using the cAMP accumulation assay. Cells expressing PTH-1 receptor on the cell surface are incubated with native PTH(1-84) (SEQ. ID. NO. 18) for 5-60 minutes at 37° C., in the presence of 2 mM IBMX (3-isobutyl-1-methyl-xanthine, Sigma, St. Louis, Mo.). Cyclic AMP accumulation is measured by specific radio-immunoassay. A compound that competes with native PTH(1-84) or PTH(1-34) (SEQ. ID. NO. 19) for binding to the PTH-1 receptor, and that inhibits the effect of native PTH(1-84) or PTH(1-34) on cAMP accumulation, is considered a competitive antagonist. Such a compound would be useful for treating hypercalcemia.
Ligands that function as antagonists can be useful for treating hyperparathyroidism. Analogs of [Ac5c^1, Aib^3, M]PTH(1-14)(parent) (SEQ. ID. NO. 15) containing N-terminal modifications predicted to dissociate signaling and binding affinity (e.g. desamino-1, Trp-2, Bpa-2, Arg-2, Deg-1,3).

[3] = system: P1R (recombinant P1R chimera) in HKRK-B28 cells; assay: cAMP stimulation in HKRK-B28 cells; type: cell-based, opposum/rat chimera
Excerpt: as §1, §2, §3

[4] = target: T2, P1R (recombinant P1R chimera) in HKRK-B28 cells (UniProt P25107+P25961, A364S/A509S/A517P/A524T/DEL519-521/E344G/G506A/H528S/I365V/I416T/I429T/K402R/K465R/L320I/M408V/N352H/S511P/S523T/T335G/T421L/T487S/V367L/V433I); assay: biochemical; type: binding, opposum/rat chimera
T2 construct: the opposum P1R from the N-terminus to the mid region of TM3; the rat P1R from the mid region of TM3 to the C-terminus; expressed in transfected cells
Excerpt: as §1
Competition Binding. Binding reactions were performed with HKRK-B28 cells or in COS-7 cells in 24-well plates. The cells were rinsed with 0.5 mL of binding buffer, and then treated successively with 100 μL binding buffer, 100 μL of binding buffer containing various amounts of unlabeled competitor ligand, and 100 μL of binding buffer containing ca. 100,000 cpm of ^125I-[Aib^1,3,Nle^8,Gln^10,Har^11,Ala^12,Trp^14,Arg^19,Tyr^21]rPTH(1-21) (SEQ. ID. NO. 36) (ca. 26 fmol; final volume=300 μL). Incubations were 4 to 6 h at 4° C., at which time near equilibrium conditions were attained. Cells were then placed on ice, the binding medium was removed, and the monolayer was rinsed three times with 0.5 mL of cold binding buffer. The cells were subsequently lysed with 0.5 mL 5N NaOH and counted for radioactivity. For each tracer and in each experiment, the non-specific binding was determined as the radioactivity that bound in the presence of the same unlabeled peptide at a concentration of 1 μM, and was ˜1% of total radioactivity added for each tracer. The maximum specific binding (B0) was the total radioactivity bound in the absence of competing ligand, corrected for nonspecific binding, and for each tracer, ranged from 8% to 20% of the total radioactivity added. Nonlinear regression was used to calculate binding IC50 values (see below). Scatchard transformations of homologous competition binding data derived from studies with 26 fmol of ^125I-[Aib^1,3,Nle^8,Gln^10,Har^11,Ala^12,Trp^14, Arg^19,Tyr^21]rPTH(1-21) (SEQ. ID. NO. 36) were employed for estimations of apparent equilibrium dissociation constant (kDapps) and total number of ligand binding sites (Bmax), assuming a single class of binding sites and equal affinities of the iodinated and non iodinated ligand.
Data Calculation. Calculations were performed using Microsoft® Excel. Nonlinear regression analyses of binding and cAMP dose-response data were performed using the four-parameter equation: yp=Min+[(Max−Min)/(1+(IC50/x)^slope)]. The Excel Solver function was utilized for parameter optimization, as described previously (Carter, P. H., et al., Endocrinology 140: 4972-4981 (1999); Bowen, W. P., and Jerman, J. C., Trends in Pharmacol. Sci. 16: 413-417 (1995)). […]

T2 sequence (P25107+P25961 fused with the stated changes): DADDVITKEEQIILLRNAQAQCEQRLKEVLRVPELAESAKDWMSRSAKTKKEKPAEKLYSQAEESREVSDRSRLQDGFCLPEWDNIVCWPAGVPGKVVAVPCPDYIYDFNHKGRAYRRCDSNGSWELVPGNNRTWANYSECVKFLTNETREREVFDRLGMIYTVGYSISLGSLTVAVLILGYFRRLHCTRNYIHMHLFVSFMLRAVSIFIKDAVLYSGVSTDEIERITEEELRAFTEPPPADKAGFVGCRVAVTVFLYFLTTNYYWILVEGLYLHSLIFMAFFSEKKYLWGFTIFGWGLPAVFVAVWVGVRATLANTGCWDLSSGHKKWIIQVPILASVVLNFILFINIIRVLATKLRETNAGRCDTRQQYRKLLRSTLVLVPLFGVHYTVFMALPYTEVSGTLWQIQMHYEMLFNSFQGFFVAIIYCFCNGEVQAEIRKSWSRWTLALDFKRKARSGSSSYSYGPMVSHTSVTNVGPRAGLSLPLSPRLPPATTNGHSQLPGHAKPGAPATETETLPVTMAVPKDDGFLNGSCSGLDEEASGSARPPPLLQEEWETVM

## CC[C@H](C)[C@H](NC(=O)[C@H](CCC(=O)O)NC(=O)C(C)(C)NC(=O)[C@@H](NC(=O)C(C)(C)N)C(C)C)C(=O)N[C@@H](CCC(N)=O)C(=O)N[C@@H](CC(C)C)C(=O)N[C@@H](CCSC)C(=O)N[C@@H](Cc1c[nH]cn1)C(=O)N[C@@H](CCC(N)=O)C(=O)N[C@@H](CCCCNC(=N)N)C(=O)N[C@@H](C)C(=O)N[C@@H](CCCCN)C(=O)N[C@@H](Cc1c[nH]c2ccccc12)C(N)=O [[Aib^1,3,M]PTH(1-14), [Aib^1,3,Gln^10,Har^11,Ala^12,Trp^14]PTH(1-14)NH2] (H-[Aib]V[Aib]EIQLMHQ[hArg]AKW-NH2)
[1]
  EC50: 6.4 ± 1.6 nM

## [Ac5c^1,Trp^2,Aib^3, M]PTH(1-14) (H-[Ac5c]W[Aib]EIQLMHQ[hArg]AKW-NH2; SMILES CC[C@H](C)[C@H](NC(=O)[C@H](CCC(=O)O)NC(=O)C(C)(C)NC(=O)[C@H](Cc1c[nH]c2ccccc12)NC(=O)C1(N)CCCC1)C(=O)N[C@@H](CCC(N)=O)C(=O)N[C@@H](CC(C)C)C(=O)N[C@@H](CCSC)C(=O)N[C@@H](Cc1c[nH]cn1)C(=O)N[C@@H](CCC(N)=O)C(=O)N[C@@H](CCCCNC(=N)N)C(=O)N[C@@H](C)C(=O)N[C@@H](CCCCN)C(=O)N[C@@H](Cc1c[nH]c2ccccc12)C(N)=O)
[2]
  inhibition of the agonist activity of [Aib1,3,M]PTH(1-14): 50%

## CC[C@H](C)[C@H](NC(=O)[C@H](CCC(=O)O)NC(=O)C(CC)(CC)NC(=O)[C@@H](NC(=O)C(N)(CC)CC)C(C)C)C(=O)N[C@@H](CCC(N)=O)C(=O)N[C@@H](CC(C)C)C(=O)N[C@@H](CCSC)C(=O)N[C@@H](Cc1c[nH]cn1)C(=O)N[C@@H](CCC(N)=O)C(=O)N[C@@H](CCCCNC(=N)N)C(=O)N[C@@H](C)C(=O)N[C@@H](CCCCN)C(=O)N[C@@H](Cc1c[nH]c2ccccc12)C(N)=O [[Deg^1,3,M]PTH(1-14), [Deg^1,3,Gln^10,Har^11,Ala^12,Trp^14]PTH(1-14)NH2] (H-[Deg]V[Deg]EIQLMHQ[hArg]AKW-NH2)
[3]; HKRK-B28 cells
  maximum cAMP response as percent of that attained by the parent peptide: 45%
[3]
  cAMP agonist activity / signaling potency (in words): true partial agonist for cAMP formation
[3]; listed as [Deg^1,3,Gln^10,Har^11,Ala^12,Trp^14]pTH(1-14)NH2
  cAMP agonist activity / signaling potency (in words): partial agonist response
[4]; in words
  P1R binding affinity (in words): bound with adequate affinity
[4]; relative to parent [M]PTH(1-14)
  binding affinity higher than that of parent [M]PTH(1-14): 50 fold
[1]
  EC50: 1400 ± 500 nM
  agonist behavior (in words): partial agonist behavior
  increase in cAMP accumulation (Emax) over basal: 23 fold

## CC[C@H](C)[C@H](NC(=O)[C@H](CCC(=O)O)NC(=O)C(C)(C)NC(=O)[C@@H](NC(=O)C1(N)CCCC1)C(C)C)C(=O)N[C@@H](CCC(N)=O)C(=O)N[C@@H](CC(C)C)C(=O)N[C@@H](CCSC)C(=O)N[C@@H](Cc1c[nH]cn1)C(=O)N[C@@H](CCC(N)=O)C(N)=O [[Ac5c^1,Aib^3,M]PTH(1-10), [Ac5c^1,Aib^3,Gln^10]PTH(1-10)NH2] (H-[Ac5c]V[Aib]EIQLMHQ-NH2)
[3]; HKRK-B28 cells, peptide at 10 μM
  increase in cAMP levels relative to basal: 33 fold
[3]; HKRK-B28 cells, read-out: cAMP EC50 estimated from dose-response analysis
  EC50: ~3000 nM
[3]
  cAMP agonist activity / signaling potency (in words): clear cAMP response
[3]; Aib^3, Gln^10]PTH(1-10)
  cAMP agonist activity / signaling potency (in words): fall cAMP agonist, albeit with micromolar potency
[4]; concentrations as high as 1×10^−4M, HKRK-B28 cells
  inhibition of tracer radioligand binding: neither peptide inhibited the binding
